Assay: Hot stage polarized light microscopy (HSPLM)
Format: physicochemical
Conditions: heat only, 130° C. or 160° C., FIG. 3
Protocol: Hot stage polarized light microscopy (HSPLM) and polarized light microscopy (PLM) were used to determine amorphous nature and visual interactions between excipients when melting. Samples were prepared by lightly spreading physical mixtures of the two compositions onto a glass slide. An Olympus BX60 microscope (Olympus Corp., Center Valley, Pa.) with Insight QE camera (Diagnostic Instruments, Inc., Sterling Heights, Mich.) was used for visual observation. […] Images were captured using Spot Advance Software (Diagnostic Instruments, Inc.).

For `CS(=O)(=O)c1cc(C2(NC(=O)c3cncc4c3cnn4-c3ccc(F)cc3)CC2)ccn1` [BI-667], the “dissolving of BI-667 in HPMCAS-HMP when no mixing was applied” value was “not dissolve”.

From patent US20230167181A1, “PHARMACEUTICAL COMPOSITIONS AND METHODS OF MANUFACTURE USING THERMALLY CONDUCTIVE EXCIPIENTS” (BOARD OF REGENTS, THE UNIVERSITY OF TEXAS SYSTEM, priority 2020, published 2023)
